Laboratory results taken from US20090087845A1, “Genetic Markers Of True Low Birth Weight” (priority 2005, published 2009).
Several values for one entry are separate records, joined by “and”; a condition that tells them apart may be missing. Equal values may be shown once.

System: placental gene expression
Test: Placental gene expression (Affymetrix Rat Genome Chip 230.2) after SSRI (fluoxetine) exposure throughout gestation
Type: in vivo
Settings: placenta, SSRI-exposed samples
Method: Gene expression data from pregnant rats under different forms of dietary restriction was gathered. […] (N=8) • Group 2 (CR50): Rats Given 50% of their Normal Daily Intake of Food. (N=5) • Group 3 (CR70): Rats Given 70% of their Normal Daily Intake of Food. […] (N=6) Placentas from the rats of each Group were harvested on Day 21 of gestation. RNA was extracted and gene expression was measured based on hybridization of RNA to Affymetrix Rat Genome Chips™ (230.2) (Affymetrix, Santa Clara, Calif.).
In order to determine whether placental gene expression profiling can be used to identify other prenatal exposures such as toxicants and drugs, a group of rats with drug exposure was monitored as described above. […] As with control, CR50, CR70, and HF groups, placentas from the mothers were sampled after 21 days of gestation and gene expression monitored utilizing an Affymetrix Rat Genome Chip.

With CNCCC(Oc1ccc(C(F)(F)F)cc1)c1ccccc1 (centres unmarked) [fluoxetine, Fluoxetine] the “expression, probeset 1368985_at” value was 4.725 and 4.454 and 4.646 and 4.715 and 4.588 and 4.472, the “expression, probeset 1369005_at” value was 5.188 and 5.546 and 5.291 and 5.305 and 5.241 and 5.222 and the “expression, probeset 1369014_at” value was 4.757 and 5.004 and 4.708 and 4.543 and 4.616 and 4.993. The “expression, probeset 1369051_at” value was 5.588 and 5.207 and 4.835 and 5.011 and 5.144 and 5.186, the “expression, probeset 1369192_at” value was 5.561 and 5.364 and 5.202 and 5.355 and 5.327 and 5.66 and the “expression, probeset 1369754_a_at” value was 8.583 and 8.277 and 8.264 and 8.283 and 8.554 and 8.483. The “expression, probeset 1369894_at” value was 3.616 and 3.758 and 3.897 and 3.839 and 4.008 and 3.982, the “expression, probeset 1370115_at” value was 4.967 and 4.917 and 4.824 and 4.622 and 4.818 and 4.719 and the “expression, probeset 1370260_at” value was 7.313 and 7.599 and 7.249 and 7.038 and 7.707 and 6.879. For the same compound, the “expression, probeset 1370521_at” value was 8.48 and 8.58 and 8.737 and 8.764 and 8.624 and 8.798, the “expression, probeset 1370682_at” value was 5.579 and 5.507 and 5.51 and 5.944 and 5.574 and 5.843 and the “expression, probeset 1370688_at” value was 7.904 and 7.963 and 8.096 and 7.915 and 8.157 and 7.99. The “expression, probeset 1370766_at” value was 4.633 and 4.679 and 4.503 and 4.578 and 4.207 and 4.398, the “expression, probeset 1371435_at” value was 11.53 and 11.47 and 12.47 and 12.43 and 12.2189 and 12.12 and the “expression, probeset 1371813_at” value was 6.757 and 6.608 and 7.254 and 7.022 and 6.663 and 6.909. The “expression, probeset 1372141_at” value was 9.643 and 9.597 and 10.34 and 10.39 and 9.957 and 10.19, the “expression, probeset 1372462_at” value was 7.912 and 7.819 and 7.864 and 7.873 and 6.184 and 8.214 and the “expression, probeset 1372514_s_at” value was 8.136 and 8.21 and 8.071 and 8.128 and 7.741 and 8.134. For the same compound, the “expression, probeset 1372593_at” value was 7.225 and 7.133 and 7.724 and 8.015 and 7.571 and 7.719, the “expression, probeset 1373319_at” value was 9.595 and 9.441 and 10.05 and 10.11 and 10.07 and 9.901 and the “expression, probeset 1373396_at” value was 8.164 and 8.317 and 8.21 and 8.056 and 8.147 and 8.247. For the same compound, the “expression, probeset 1373702_at” value was 7.559 and 7.846 and 7.181 and 7.332 and 7.377 and 7.496, the “expression, probeset 1373804_at” value was 7.894 and 7.963 and 7.858 and 8.12 and 7.699 and 8.068 and the “expression, probeset 1373925_at” value was 6.195 and 6.159. For the same compound, the “expression, probeset 1374112_at” value was 7.049 and 6.725 and 6.891 and 7.196 and 7.138 and 6.73, the “expression, probeset 1374231_at” value was 8.494 and 8.998 and 8.117 and 8.316 and 7.948 and 8.466 and the “expression, probeset 1374656_at” value was 8.729 and 9.034 and 8.507 and 8.743 and 9.004 and 8.9546. The “expression, probeset 1374739_at” value was 8.348 and 8.65 and 7.424 and 7.76 and 7.662 and 7.815, the “expression, probeset 1374807_at” value was 6.505 and 6.904 and 6.697 and 6.907 and 6.749 and 6.775 and the “expression, probeset 1375407_at” value was 4.487 and 4.33 and 4.344 and 4.489 and 4.605 and 4.326. For the same compound, the “expression, probeset 1375738_at” value was 4.993 (2×) and 4.843 and 5.388 and 5.322 and 5.141, the “expression, probeset 1376136_at” value was 5.074 and 4.867 and 4.557 and 4.873 and 4.805 and 4.931 and the “expression, probeset 1376218_a_at” value was 4.961 and 5.16 and 4.667 and 4.873 and 4.562 and 4.552. For the same compound, the “expression, probeset 1376278_at” value was 6.191 and 6.405 and 5.934 and 6.175 and 6.205 and 6.006, the “expression, probeset 1376289_at” value was 3.746 and 3.75 and 3.659 and 3.772 and 3.71 and 3.697 and the “expression, probeset 1376294_at” value was 7.495 and 7.951 and 7.425 and 7.689 and 7.578 and 7.48. For the same compound, the “expression, probeset 1376844_at” value was 3.958 and 3.92 and 4.036 and 4.211 and 4.082 and 4.214, the “expression, probeset 1376852_at” value was 6.78 and 6.537 and 6.455 and 6.699 and 6.862 and 6.682 and the “expression, probeset 1377028_at” value was 5.528 and 5.846 and 5.206 and 5.427 and 5.578 and 5.375. The “expression, probeset 1377123_at” value was 8.958 and 9.069 and 8.729 and 8.819 and 8.853 and 8.789, the “expression, probeset 1377210_at” value was 5.83 and 5.617 and 6.032 and 5.854 and 6.198 and 5.93 and the “expression, probeset 1377414_at” value was 7.593. The “expression, probeset 1377476_at” value was 3.935 and 3.899 and 3.84 and 3.865 and 3.998 and 4.107, the “expression, probeset 1377621_at” value was 8.676 and 8.675 and 8.549 and 8.432 and 8.896 and 8.593 and the “expression, probeset 1377746_at” value was 6.432 and 6.591 and 6.425 and 6.509 and 6.484 and 6.597. For the same compound, the “expression, probeset 1378275_at” value was 8.581 and 8.43 and 8.773 and 8.828 and 8.515 and 8.555, the “expression, probeset 1378318_at” value was 7.572 and 7.8 and 8.112 and 7.987 and 7.864 and 8.147 and the “expression, probeset 1378355_a_at” value was 5.807 and 6.412 and 5.853 and 5.536 and 5.777 and 6.037. For the same compound, the “expression, probeset 1378642_at” value was 6.331 and 6.197 and 6.546 and 6.861 and 6.598 and 6.634, the “expression, probeset 1378705_at” value was 8.279 and 8.34 and 7.828 and 7.561 and 7.947 and 7.98 and the “expression, probeset 1378872_at” value was 4.782 and 4.711 and 4.621 and 4.863 and 4.867 and 4.775. The “expression, probeset 1378992_at” value was 3.832 and 3.701 and 3.85 and 3.859 and 3.911 and 3.949, the “expression, probeset 1379110_at” value was 3.965 and 4.036 and 3.739 and 3.917 and 3.886 and 3.804 and the “expression, probeset 1379140_at” value was 4.026 and 4.28 and 4.108 and 3.886 and 4.071 and 4.079. For the same compound, the “expression, probeset 1379206_at” value was 6.486 and 6.611 and 6.213 and 6.405 and 6.472 and 6.395, the “expression, probeset 1379235_x_at” value was 7.486 and 7.695 and 7.128 and 7.252 and 7.527 and 7.244 and the “expression, probeset 1379342_at” value was 6.297 and 6.3 and 6.275 and 6.188 and 6.259 and 6.187. For the same compound, the “expression, probeset 1379408_at” value was 8.688 and 8.662 and 8.77 and 8.887 and 8.853 and 8.912, the “expression, probeset 1379796_at” value was 5.201 and 4.92 and 5.205 and 5.072 and 5.171 and 5.031 and the “expression, probeset 1379827_at” value was 7.897 and 7.85 and 7.7663 and 7.925 and 7.632 and 7.663. For the same compound, the “expression, probeset 1379963_at” value was 6.925 and 7.095 and 7.165 and 7.115 and 7.307 and 7.146, the “expression, probeset 1379980_at” value was 7.864 and 7.817 and 8.195 and 8.083 and 7.784 and 8.003 and the “expression, probeset 1380152_at” value was 5.47 and 5.228 and 5.461 and 5.179 and 5.39 and 5.269. For the same compound, the “expression, probeset 1380392_at” value was 6.093 and 5.622 and 5.425 and 5.398 and 5.781 and 5.646, the “expression, probeset 1380454_at” value was 5.81 and 5.871 and 5.693 and 5.717 and 5.721 and 5.875 and the “expression, probeset 1381074_at” value was 4.343 and 4.301 and 4.059 and 4.183 and 4.17 and 4.086. For the same compound, the “expression, probeset 1381122_at” value was 5.406 and 5.219 and 5.499 and 5.148 and 5.434 and 5.212, the “expression, probeset 1381286_at” value was 5.261 and 5.374 and 5.297 and 5.034 and 5.316 and 5.389 and the “expression, probeset 1381483_at” value was 3.996 and 4.01 and 3.983 and 3.972 and 3.97 and 4.017. For the same compound, the “expression, probeset 1381872_at” value was 6.498 and 7.027 and 7.042 and 6.737 and 6.911 and 6.996, the “expression, probeset 1381874_at” value was 6.734 and 6.453 and 6.457 and 6.588 and 6.285 and 6.523 and the “expression, probeset 1381941_at” value was 8.218. For the same compound, the “expression, probeset 1381950_at” value was 3.397 and 3.37 and 3.47 and 3.379 and 3.404, the “expression, probeset 1381966_at” value was 8.36 and 8.855 and 8.774 and 8.518 and 8.76 and 8.757 and the “expression, probeset 1382015_at” value was 7.649 and 7.911 and 7.376 and 7.559 and 7.728 and 7.55. For the same compound, the “expression, probeset 1382056_at” value was 8.204 and 7.693 and 8.302 and 8.683 and 9.183 and 8.357, the “expression, probeset 1382110_at” value was 7.206 and 7.183 and 6.692 and 6.852 and 6.784 and 6.862 and the “expression, probeset 1382513_at” value was 6.939 and 6.904 and 6.918 and 6.844 and 6.991 and 6.992. The “expression, probeset 1382608_at” value was 5.493 and 5.536 and 5.441 and 5.641 and 5.553 and 5.573, the “expression, probeset 1382825_at” value was 6.303 and the “expression, probeset 1382932_at” value was 5.367 and 5.211 and 5.239 and 5.252 and 5.387 and 5.359. The “expression, probeset 1383132_at” value was 5.887 and 6.391 and 5.865 and 5.893 and 5.977 and 5.951, the “expression, probeset 1383300_at” value was 8.422 and 8.732 and 8.861 and 8.982 and 9.071 and 8.854 and the “expression, probeset 1383309_at” value was 7.874 and 8.135 and 8.529 and 8.112 and 8.518 and 7.955. For the same compound, the “expression, probeset 1383376_at” value was 6.632 and 7.028 and 7.303 and 6.987 and 6.76 and 6.955, the “expression, probeset 1383430_at” value was 6.213 and 5.851 and 6.754 and 6.641 and 6.446 and 6.508 and the “expression, probeset 1383443_at” value was 5.895 and 5.907 and 6.025 and 5.854 and 5.859 and 6.136. For the same compound, the “expression, probeset 1383472_at” value was 3.955 and 3.951 and 3.984 and 4.033 and 3.887 and 3.899, the “expression, probeset 1383659_a_at” value was 5.774 and 5.519 and 5.386 and 5.431 and 4.833 and 6.496 and the “expression, probeset 1383667_at” value was 8 and 8.041 and 8.381 and 8.126 and 8.244 and 8.175. For the same compound, the “expression, probeset 1383670_at” value was 7.784 and 7.593 and 7.74 and 7.592 and 7.856 and 7.209, the “expression, probeset 1383900_at” value was 4.742 and 4.617 and 4.606 and 4.705 and 4.749 and 4.765 and the “expression, probeset 1383984_at” value was 3.997 and 4.264 and 4.189 and 4.266 and 4.14 and 4.315. The “expression, probeset 1384135_at” value was 7.574 and 7.593 and 7.557 and 7.727 and 7.711 and 7.722, the “expression, probeset 1384195_at” value was 5.325 and 5.826 and 5.609 and 5.355 and 5.716 and 5.368 and the “expression, probeset 1384374_at” value was 6.358 and 6.643 and 6.365 and 5.887 and 6.421 and 6.362. The “expression, probeset 1384377_at” value was 7.233 and 7.134 and 7.085 and 7.15 and 7.214 and 7.158 and the “expression, probeset 1384467_at” value was 8.34 and 8.507 and 8.418 and 8.058 and 8.062 and 8.234.
